Tests used:
Format in all cases: functional
Rattus norvegicus [1] = experiment: Anti-inflammatory activity in Wistar rat assessed as reduction in carrageenan induced paw edema by measuring paw volume as ml of Hg at 100 mg/kg, po administered 30 mins before carrageenan challenge measured 2 hrs post carrageenan challenge (reference value: 0.36 +/- 0.3 ml of Hg)
Rattus norvegicus [2] = experiment: Anti-inflammatory activity in Wistar rat assessed as reduction in carrageenan induced paw edema by measuring paw volume as ml of Hg at 100 mg/kg, po administered 30 mins before carrageenan challenge measured 1 hr post carrageenan challenge (reference value: 0.36 +/- 0.3 ml of Hg)
Rattus norvegicus [3] = experiment: Anti-inflammatory activity in Wistar rat assessed as reduction in carrageenan induced paw edema by measuring paw volume as ml of Hg at 100 mg/kg, po administered 30 mins before carrageenan challenge measured 6 hrs post carrageenan challenge (reference value: 0.36 +/- 0.3 ml of Hg)
Rattus norvegicus [4] = experiment: Anti-inflammatory activity in Wistar rat assessed as reduction in carrageenan induced paw edema by measuring paw volume as ml of Hg at 100 mg/kg, po administered 30 mins before carrageenan challenge measured 4 hrs post carrageenan challenge (reference value: 0.36 +/- 0.3 ml of Hg)

**Q.** Which Activity (Rattus norvegicus [1]) does the source give for Cc1noc2c(C(=O)c3ccccc3O)noc12 here?
**A.** Its Activity is 0.93 mL.

**Q.** And the Activity (Rattus norvegicus [2])?
**A.** The Activity was 0.82 mL.

**Q.** And the Activity (Rattus norvegicus [3])?
**A.** The Activity was 0.61 mL.

**Q.** And the Activity (Rattus norvegicus [4])?
**A.** The Activity was 0.8 mL.

**Q.** Which results are given for Cc1noc2c(C(=O)c3ccccc3)noc12?
**A.** Activity (Rattus norvegicus [1]): 0.86 mL; Activity (Rattus norvegicus [2]): 0.8 mL; Activity (Rattus norvegicus [3]): 0.63 mL; Activity (Rattus norvegicus [4]): 0.82 mL

**Q.** Which results are given for Cc1noc2c(C(=O)c3ccc(Cl)cc3)noc12?
**A.** Activity (Rattus norvegicus [1]): 0.65 mL; Activity (Rattus norvegicus [2]): 0.53 mL; Activity (Rattus norvegicus [3]): 0.41 mL; Activity (Rattus norvegicus [4]): 0.67 mL

**Q.** Which results are given for Cc1noc2c(C(=O)c3ccc(Br)cc3)noc12?
**A.** Activity (Rattus norvegicus [1]): 0.69 mL; Activity (Rattus norvegicus [2]): 0.52 mL; Activity (Rattus norvegicus [3]): 0.32 mL; Activity (Rattus norvegicus [4]): 0.54 mL

**Q.** Which Activity (Rattus norvegicus [1]) does the source give for COc1ccc(C(=O)c2noc3c(C)noc23)cc1 here?
**A.** Its Activity is 0.7 mL.

**Q.** And the Activity (Rattus norvegicus [2])?
**A.** The Activity was 0.78 mL.

**Q.** And the Activity (Rattus norvegicus [3])?
**A.** Its Activity is 0.62 mL.

**Q.** What about the Activity (Rattus norvegicus [4]) of the same compound?
**A.** Its Activity is 0.83 mL.

**Q.** Which Activity (Rattus norvegicus [1]) does the source give for Cc1noc2c(C(=O)c3ccccc3[N+](=O)[O-])noc12 here?
**A.** Its Activity is 0.83 mL.

**Q.** What about the Activity (Rattus norvegicus [2]) of the same compound?
**A.** The Activity was 0.75 mL.

**Q.** What about the Activity (Rattus norvegicus [3]) of the same compound?
**A.** Its Activity is 0.63 mL.

**Q.** What about the Activity (Rattus norvegicus [4]) of the same compound?
**A.** The Activity was 0.81 mL.

**Q.** Cc1noc2c(C(=O)c3ccccc3Cl)noc12 was tested. Which Activity (Rattus norvegicus [1]) did it give?
**A.** The Activity was 0.68 mL.

**Q.** What about the Activity (Rattus norvegicus [2]) of the same compound?
**A.** The Activity was 0.51 mL.

**Q.** What about the Activity (Rattus norvegicus [3]) of the same compound?
**A.** Its Activity is 0.5 mL.

**Q.** And the Activity (Rattus norvegicus [4])?
**A.** The Activity was 0.51 mL.

**Q.** Cc1noc2c(C(=O)c3ccc(N(C)C)cc3)noc12 was tested. Which Activity (Rattus norvegicus [1]) did it give?
**A.** Its Activity is 0.83 mL.

**Q.** What about the Activity (Rattus norvegicus [2]) of the same compound?
**A.** The Activity was 0.78 mL.

**Q.** And the Activity (Rattus norvegicus [3])?
**A.** Its Activity is 0.55 mL.

**Q.** What about the Activity (Rattus norvegicus [4]) of the same compound?
**A.** The Activity was 0.63 mL.

**Q.** With Cc1noc2c(C(=O)c3ccccc3Br)noc12 as the compound, how does the Activity (Rattus norvegicus [1]) read?
**A.** Its Activity is 0.68 mL.

**Q.** What about the Activity (Rattus norvegicus [2]) of the same compound?
**A.** Its Activity is 0.5 mL.

**Q.** And the Activity (Rattus norvegicus [3])?
**A.** The Activity was 0.51 mL.

**Q.** And the Activity (Rattus norvegicus [4])?
**A.** Its Activity is 0.65 mL.

From ChEMBL document CHEMBL3397034, “Environmentally benign synthesis, molecular properties prediction and anti-inflammatory activity of novel isoxazolo[5,4-d]isoxazol-3-yl-aryl-methanones via vinylogous Henry nitroaldol adducts as synthons” (2015)
